Test results: the NIST ThermoML archive (doi:10.1021/je100237h)
Numbers after ± are expanded uncertainties.

Settings: Liquid; for mass density: Vibrating tube method; for viscosity: 101.33 kPa, Concentric cylinders viscometry

For `COC(=O)CCCCC(=O)OC` [dimethyl 1,6-hexanedioate], which mass density (343.15 K, 130000 kPa) is on record?
Its mass density is 1088.3 ± 2.3 kg/m3.

And the mass density (343.15 K, 140000 kPa)?
Its mass density is 1092.4 ± 2.4 kg/m3.

And the viscosity (348.15 K)?
Its viscosity is 1.25 ± 0.03 mPa·s.

And the mass density (353.15 K, 100 kPa)?
The mass density was 1002.2 ± 2 kg/m3.

What about the viscosity (353.15 K) of the same molecule?
Its viscosity is 1.17 ± 0.03 mPa·s.

What about the mass density (353.15 K, 10000 kPa) of the same molecule?
Its mass density is 1010.8 ± 2 kg/m3.

What about the mass density (353.15 K, 20000 kPa) of the same molecule?
The mass density was 1018.4 ± 2.1 kg/m3.

And the mass density (353.15 K, 30000 kPa)?
The mass density was 1025.6 ± 2.1 kg/m3.

What about the mass density (353.15 K, 40000 kPa) of the same molecule?
Its mass density is 1032.8 ± 2.1 kg/m3.

And the mass density (353.15 K, 50000 kPa)?
The mass density was 1039 ± 2.1 kg/m3.

And the mass density (353.15 K, 60000 kPa)?
The mass density was 1045.4 ± 2.1 kg/m3.

What about the mass density (353.15 K, 70000 kPa) of the same molecule?
The mass density was 1051.2 ± 2.1 kg/m3.

What about the mass density (353.15 K, 80000 kPa) of the same molecule?
The mass density was 1056.7 ± 2.2 kg/m3.

What about the mass density (353.15 K, 90000 kPa) of the same molecule?
Its mass density is 1061.9 ± 2.2 kg/m3.

And the mass density (353.15 K, 100000 kPa)?
Its mass density is 1067.3 ± 2.2 kg/m3.

And the mass density (353.15 K, 110000 kPa)?
Its mass density is 1072.2 ± 2.2 kg/m3.

What about the mass density (353.15 K, 120000 kPa) of the same molecule?
Its mass density is 1076.6 ± 2.3 kg/m3.

And the mass density (353.15 K, 130000 kPa)?
Its mass density is 1081.3 ± 2.3 kg/m3.

And the mass density (353.15 K, 140000 kPa)?
Its mass density is 1085.6 ± 2.3 kg/m3.

What about the viscosity (358.15 K) of the same molecule?
The viscosity was 1.1 ± 0.02 mPa·s.

What about the mass density (363.15 K, 100 kPa) of the same molecule?
The mass density was 992.2 ± 2 kg/m3.

What about the viscosity (363.15 K) of the same molecule?
The viscosity was 1.03 ± 0.02 mPa·s.

And the mass density (363.15 K, 10000 kPa)?
Its mass density is 1000.6 ± 2 kg/m3.

And the mass density (363.15 K, 20000 kPa)?
The mass density was 1008.9 ± 2 kg/m3.

What about the mass density (363.15 K, 30000 kPa) of the same molecule?
Its mass density is 1016.6 ± 2 kg/m3.

What about the mass density (363.15 K, 40000 kPa) of the same molecule?
Its mass density is 1023.7 ± 2.1 kg/m3.

What about the mass density (363.15 K, 50000 kPa) of the same molecule?
The mass density was 1030.4 ± 2.1 kg/m3.

What about the mass density (363.15 K, 60000 kPa) of the same molecule?
The mass density was 1036.8 ± 2.1 kg/m3.

And the mass density (363.15 K, 70000 kPa)?
Its mass density is 1042.9 ± 2.1 kg/m3.

And the mass density (363.15 K, 80000 kPa)?
The mass density was 1048.5 ± 2.1 kg/m3.

And the mass density (363.15 K, 90000 kPa)?
Its mass density is 1053.9 ± 2.2 kg/m3.

And the mass density (363.15 K, 100000 kPa)?
Its mass density is 1059.2 ± 2.2 kg/m3.

What about the mass density (363.15 K, 110000 kPa) of the same molecule?
Its mass density is 1064.3 ± 2.2 kg/m3.

What about the mass density (363.15 K, 120000 kPa) of the same molecule?
The mass density was 1069.1 ± 2.3 kg/m3.

What about the mass density (363.15 K, 130000 kPa) of the same molecule?
Its mass density is 1074.1 ± 2.3 kg/m3.

What about the mass density (363.15 K, 140000 kPa) of the same molecule?
Its mass density is 1078.5 ± 2.3 kg/m3.

What about the viscosity (368.15 K) of the same molecule?
Its viscosity is 0.97 ± 0.02 mPa·s.

What about the mass density (373.15 K, 100 kPa) of the same molecule?
The mass density was 981.9 ± 2 kg/m3.

What about the viscosity (373.15 K) of the same molecule?
The viscosity was 0.92 ± 0.02 mPa·s.

And the mass density (373.15 K, 10000 kPa)?
The mass density was 991 ± 2 kg/m3.

And the mass density (373.15 K, 20000 kPa)?
The mass density was 999.5 ± 2 kg/m3.

And the mass density (373.15 K, 30000 kPa)?
Its mass density is 1007.7 ± 2 kg/m3.

And the mass density (373.15 K, 40000 kPa)?
The mass density was 1014.8 ± 2 kg/m3.

What about the mass density (373.15 K, 50000 kPa) of the same molecule?
The mass density was 1021.8 ± 2.1 kg/m3.

And the mass density (373.15 K, 60000 kPa)?
Its mass density is 1029 ± 2.1 kg/m3.

What about the mass density (373.15 K, 70000 kPa) of the same molecule?
Its mass density is 1035 ± 2.1 kg/m3.

And the mass density (373.15 K, 80000 kPa)?
Its mass density is 1040.9 ± 2.1 kg/m3.

What about the mass density (373.15 K, 90000 kPa) of the same molecule?
The mass density was 1046.4 ± 2.1 kg/m3.

What about the mass density (373.15 K, 100000 kPa) of the same molecule?
The mass density was 1051 ± 2.2 kg/m3.

And the mass density (373.15 K, 110000 kPa)?
The mass density was 1056.3 ± 2.2 kg/m3.

And the mass density (373.15 K, 120000 kPa)?
Its mass density is 1061.6 ± 2.2 kg/m3.

And the mass density (373.15 K, 130000 kPa)?
The mass density was 1066 ± 2.3 kg/m3.

What about the mass density (373.15 K, 140000 kPa) of the same molecule?
Its mass density is 1071.2 ± 2.3 kg/m3.

What about the mass density (383.15 K, 100 kPa) of the same molecule?
The mass density was 972.2 ± 2 kg/m3.

And the mass density (383.15 K, 10000 kPa)?
Its mass density is 981.1 ± 2 kg/m3.

What about the mass density (383.15 K, 20000 kPa) of the same molecule?
The mass density was 990.4 ± 2 kg/m3.

What about the mass density (383.15 K, 30000 kPa) of the same molecule?
The mass density was 998.7 ± 2 kg/m3.

And the mass density (383.15 K, 40000 kPa)?
Its mass density is 1006.3 ± 2 kg/m3.

What about the mass density (383.15 K, 50000 kPa) of the same molecule?
The mass density was 1013.9 ± 2 kg/m3.

What about the mass density (383.15 K, 60000 kPa) of the same molecule?
Its mass density is 1020.5 ± 2.1 kg/m3.

And the mass density (383.15 K, 70000 kPa)?
The mass density was 1027 ± 2.1 kg/m3.

And the mass density (383.15 K, 80000 kPa)?
Its mass density is 1033.2 ± 2.1 kg/m3.

What about the mass density (383.15 K, 90000 kPa) of the same molecule?
Its mass density is 1039 ± 2.1 kg/m3.

And the mass density (383.15 K, 100000 kPa)?
Its mass density is 1044.7 ± 2.2 kg/m3.

And the mass density (383.15 K, 110000 kPa)?
The mass density was 1050.1 ± 2.2 kg/m3.

What about the mass density (383.15 K, 120000 kPa) of the same molecule?
The mass density was 1055.2 ± 2.2 kg/m3.

And the mass density (383.15 K, 130000 kPa)?
Its mass density is 1059.9 ± 2.2 kg/m3.

And the mass density (383.15 K, 140000 kPa)?
Its mass density is 1065.1 ± 2.3 kg/m3.

And the mass density (393.15 K, 100 kPa)?
The mass density was 961.7 ± 1.9 kg/m3.

What about the mass density (393.15 K, 10000 kPa) of the same molecule?
Its mass density is 971.7 ± 2 kg/m3.

And the mass density (393.15 K, 20000 kPa)?
Its mass density is 981.5 ± 2 kg/m3.

And the mass density (393.15 K, 30000 kPa)?
The mass density was 990.1 ± 2 kg/m3.

And the mass density (393.15 K, 40000 kPa)?
Its mass density is 998.2 ± 2 kg/m3.

What about the mass density (393.15 K, 50000 kPa) of the same molecule?
Its mass density is 1005.9 ± 2 kg/m3.

And the mass density (393.15 K, 60000 kPa)?
Its mass density is 1013 ± 2 kg/m3.

And the mass density (393.15 K, 70000 kPa)?
The mass density was 1019.7 ± 2.1 kg/m3.

What about the mass density (393.15 K, 80000 kPa) of the same molecule?
Its mass density is 1026 ± 2.1 kg/m3.

And the mass density (393.15 K, 90000 kPa)?
The mass density was 1032.1 ± 2.1 kg/m3.

What about the mass density (393.15 K, 100000 kPa) of the same molecule?
The mass density was 1037.7 ± 2.1 kg/m3.

And the mass density (393.15 K, 110000 kPa)?
The mass density was 1043.1 ± 2.2 kg/m3.

What about the mass density (393.15 K, 120000 kPa) of the same molecule?
The mass density was 1048.7 ± 2.2 kg/m3.

What about the mass density (393.15 K, 130000 kPa) of the same molecule?
The mass density was 1053.8 ± 2.2 kg/m3.

What about the mass density (393.15 K, 140000 kPa) of the same molecule?
The mass density was 1058.5 ± 2.3 kg/m3.

And the mass density (403.15 K, 100 kPa)?
The mass density was 951.5 ± 1.9 kg/m3.

What about the mass density (403.15 K, 10000 kPa) of the same molecule?
The mass density was 961.4 ± 1.9 kg/m3.

And the mass density (403.15 K, 20000 kPa)?
Its mass density is 971.6 ± 2 kg/m3.

And the mass density (403.15 K, 30000 kPa)?
The mass density was 980.8 ± 2 kg/m3.

What about the mass density (403.15 K, 40000 kPa) of the same molecule?
The mass density was 989.3 ± 2 kg/m3.

What about the mass density (403.15 K, 50000 kPa) of the same molecule?
Its mass density is 997.3 ± 2 kg/m3.

What about the mass density (403.15 K, 60000 kPa) of the same molecule?
Its mass density is 1004.5 ± 2 kg/m3.

And the mass density (403.15 K, 70000 kPa)?
Its mass density is 1011.5 ± 2.1 kg/m3.

And the mass density (403.15 K, 80000 kPa)?
The mass density was 1018.2 ± 2.1 kg/m3.

And the mass density (403.15 K, 90000 kPa)?
Its mass density is 1024.5 ± 2.1 kg/m3.

And the mass density (403.15 K, 100000 kPa)?
Its mass density is 1030.2 ± 2.1 kg/m3.

And the mass density (403.15 K, 110000 kPa)?
Its mass density is 1035.9 ± 2.2 kg/m3.

What about the mass density (403.15 K, 120000 kPa) of the same molecule?
The mass density was 1041.3 ± 2.2 kg/m3.

What about the mass density (403.15 K, 130000 kPa) of the same molecule?
The mass density was 1046.6 ± 2.2 kg/m3.

And the mass density (403.15 K, 140000 kPa)?
Its mass density is 1051.6 ± 2.3 kg/m3.
